Experimental data published in US9079874B2, “α-Lipoic acid nanoparticles and methods for preparing thereof” (Ezaki Glico Co., Ltd., priority 2007, dated 2015).

Columns and labels:
[1] = cited from earlier work
[2] = Improvement in sulfurous odor, Test Example 2 (left indoors under sunlight); assay type: physicochemical; details: 0.1% α-lipoic acid in water, after two weeks
Excerpt: The paste after freeze-drying of the α-lipoic acid-MgCO3 nanoparticles produced in Example 1A, and the paste after freeze-drying of the α-lipoic acid nanoparticles produced in Comparative Example 1A without adding magnesium chloride and sodium carbonate, were respectively dispersed in distilled water such that the final concentration of α-lipoic acid reached 0.1%. The dispersions were placed in transparent test tubes made of resin, and the test tubes were left to stand indoors under sunlight. As a control, an aqueous dispersion liquid having α-lipoic acid dissolved in water (final concentration of α-lipoic acid 0.1%), which was prepared by adding an alkali (5M NaOH) to reagent α-lipoic acid, and thereby adjusting the pH to 7 to 7.5, was also left to stand in the same manner.

3T3-L1 cells [3] = assay: Differentiation of preadipocytes, lipid accumulation by Oil Red O, Test Example 7; assay type: cell-based; details: added to adipocyte differentiation induction medium, 100, 250 or 500 μM α-lipoic acid, 4 days; nanoparticles of Example 20A
Experimental: 1.5 ml of D-MEM medium (D-MEM medium supplemented with 10% FCS, 100 units/ml of penicillin, and 100 μg/ml of streptomycin, all at final concentrations) was added to a plastic petri dish having a diameter of 3.5 cm. To this, 5.0×10^4 cells of 3T3-L1 cells, which are preadipocytes, were suspended, and precultured for 3 days to result in a confluent state. Thereafter, the medium was replaced with 3 ml of an adipocyte differentiation induction medium (D-MEM supplemented with 10% FCS, 100 units/ml of penicillin, 100 μg/ml of streptomycin, 5 μg/ml of insulin, 0.25 μM of dexamethasone, and 0.5 mM of isobutyl-methylxanthine (IBMX), all at final concentrations). After another 2 days, the medium was replaced with 3 ml of the adipocyte differentiation induction medium of the same composition, and then the culturing was carried out for 2 days. Thus, the culturing in the adipocyte differentiation induction medium was carried out for 4 days in total. During this culturing, an α-lipoic acid solution or the α-lipoic acid-MgCO3 nanoparticle solution of Example 20A was added to the adipocyte differentiation induction medium to result in 0, 100, 250 or 500 μM of α-lipoic acid concentration. […]
The amount of accumulated lipids in the cultured cells thus obtained was measured. […] The whole amount of this solution was recovered, and the absorbance at a wavelength of 520 nm was measured with a spectrophotometer.

[4] = Thermostability test of preparation, Test Example 1 (60° C., HPLC); assay type: physicochemical; details: for Residual ratio(%) of α-lipoic acid: 60° C.
Experimental: The α-lipoic acid-MgCO3 nanoparticles produced in Example 1A, and the α-lipoic acid nanoparticles produced in Comparative Example 1A without adding magnesium chloride and sodium carbonate were respectively heated at 60° C., and the amounts of α-lipoic acid in the sample after one hour of heating and after 3 hours of heating were analyzed by HPLC. As a control, a reagent α-lipoic acid was used. The amount of α-lipoic acid after heating was divided by the amount of α-lipoic acid before heating, and the result was multiplied by 100 such that the residual ratio of α-lipoic acid was calculated. Symbol Δ represents the results of control reagent of α-lipoicacid, symbol ▪ represents the results of the α-lipoic acid dispersion liquid of Comparative Example 1, and symbol □ represents the results of the α-lipoic acid-MgCO3 nanoparticles of Example 1A.

3T3-L1 cells [5] = assay: Dedifferentiation of mature adipocytes, lipid accumulation by Oil Red O, Test Example 8; assay type: cell-based; details: added to adipocyte maturation medium, 100, 250 or 500 μM α-lipoic acid, 4 days; nanoparticles of Example 20A
Experimental: 1.5 ml of D-MEM medium (D-MEM medium supplemented with 10% FCS, 100 units/ml of penicillin, and 100 μg/ml of streptomycin, all at final concentrations) was added to a plastic petri dish having a diameter of 3.5 cm. To this, 5.0×10^4 cells of 3T3-L1 cells, which are preadipocytes, were suspended, and precultured for 3 days to result in a confluent state. Thereafter, the medium was replaced with 3 ml of an adipocyte differentiation induction medium (D-MEM medium supplemented with 10% FCS, 100 units/ml of penicillin, 100 μg/ml of streptomycin, 5 μg/ml of insulin, 0.25 μM of dexamethasone, and 0.5 mM of isobutyl-methylxanthine, all at final concentrations), and the culturing was carried out for 4 days to induce the differentiation into adipocytes. Thereafter, the medium was replaced with an adipocyte maturation medium (D-MEM medium supplemented with 10% FCS, 100 units/ml of penicillin, 100 μg/ml of streptomycin, and 5 μg/ml of insulin, all at final concentrations), and the culturing was carried out for 7 days. Thereafter, the medium was replaced with a test medium, and culturing was carried out for another 4 days. […]
The amount of accumulated lipids in the cultured cells thus obtained was measured. […] The total amount of this solution was recovered, and the absorbance at a wavelength of 520 nm was measured with a spectrophotometer.

SMILES | pKa value [1] | sulfurous odor [2] | accumulation of lipids in cells (Oil Red O, 520 nm) (3T3-L1 cells [3]) | Residual ratio(%) of α-lipoic acid ([4]; heating time 0 hrs) [%] | Residual ratio(%) of α-lipoic acid ([4]; heating time 1 hr) [%] | Residual ratio(%) of α-lipoic acid ([4]; heating time 3 hrs) [%] | reduction of the amount of α-lipoic acid ([4]; after 3 hours of heating at 60° C.) | amount of lipid accumulation in mature adipocytes (Oil Red O, 520 nm) (3T3-L1 cells [5])
CC1=C(/C=C/C(C)=C/C=C/C(C)=C/C(=O)O)C(C)(C)CCC1 [retinoic acid] | 6.4 | – | – | – | – | – | – | –
O=C(O)CCCCC1CCSS1 (stereo not drawn) [α-lipoic acid] | 4.76 | characteristic sulfurous odor strongly emanated | reduction of the accumulation of lipids | 100 | 50.51 | 44.20 | about 55% | almost indifferent from that of the non-added group
